Reference: publication PMC10412597, “Small molecule branched-chain ketoacid dehydrogenase kinase (BDK) inhibitors with opposing effects on BDK protein levels” (Nature Communications, 2023)
Read-outs that look alike come from different tables or passages of the source.

How the values were obtained:
[1] = biological target: T1, BDK (branched-chain ketoacid dehydrogenase kinase, BCKDK; hBDK) (Homo sapiens, UniProt O14874); assay: FRET assay of BDK phosphorylation of E2 RBD-E1 peptide substrate; format: biochemical; conditions: read-out: BDK in vitro IC50 (nM)^a
T1 construct: purified recombinant kinase; construct details only in Supplementary Information; human stated for the crystal structures
Excerpt: FRET assay of BDK phosphorylation of E2 RBD-E1 peptide substrate on BDK (branched-chain ketoacid dehydrogenase kinase, BCKDK; hBDK)

[2] = biological target: T1, BDK (branched-chain ketoacid dehydrogenase kinase, BCKDK; hBDK); assay: SPR; format: binding
Excerpt: SPR on BDK (branched-chain ketoacid dehydrogenase kinase, BCKDK; hBDK)

[3] = biological target: T2, Serotonin 5-HT2a (Homo sapiens, UniProt P28223); set-up: Cerep Bioprint off-target panel, functional receptor agonism or antagonism; conditions: agonist
T2 construct: gene HTR2A
Method: To discover a potent and selective BDK inhibitor, a subset of the Pfizer compound collection was screened. […] Off target activity was assessed in both CEREP and kinase panels (Supplementary Tables 2, 3).

[4] = biological target: T3, BDK-BCKDHE2 (biotinylated BDK with full length non-lipoylated E2 core subunit) (Homo sapiens, UniProt O14874); assay: AlphaLISA BDK-E2 protein-protein interaction, signal increase; format: binding
T3 construct: gene BCKDK; E2 with N-terminal FLAG and TEV site, DBT residues 62-482, bacterial expression, non-lipoylated; with Lipoamide acyltransferase component of branched-chain alpha-keto acid dehydrogenase complex, mitochondrial

[5] = biological target: T4, BDK in human skeletal myocytes (Homo sapiens, UniProt O14874); assay: AlphaLISA SureFire Ultra BCKDH phosphorylation in human skeletal myocytes; format: cell-based; conditions: intact cells; read-out: Human skeletal myocyte IC50 (nM)^a
T4 construct: gene BCKDK; endogenous full kinase in human skeletal myocytes; read-out BCKDH E1alpha phosphorylation
Excerpt: AlphaLISA SureFire Ultra BCKDH phosphorylation in human skeletal myocytes on BDK in human skeletal myocytes

[6] = biological target: T1, BDK (branched-chain ketoacid dehydrogenase kinase, BCKDK; hBDK); assay: biochemical; set-up: TR-FRET BDK kinase assay, phosphorylation of LBD-E1 substrate, 15 uM ATP; conditions: read-out: BDK in vitro IC50
Method: 705 covered with a lid and allowed to incubate at room temperature for 90 min. Final concentration of 706 LBD-E1 substrate was 50 nM and final concentration of ATP was 15 µM. Following incubation, 707 the enzyme reactions were stopped by adding 5 µL of 4X stop/primary antibody solution 708 containing 100 mM (final) EDTA, 2 nM (final) anti-His Eu antibody, and 1:1000 anti-pE1 antibody 709 in assay buffer. The plates were covered and incubated at room temperature for 30 min. Finally, 710 5 µL of 4X detection reagent consisting of 20 nM (final) anti-rabbit Ulight antibody and 1X LANCE 711 detection buffer in dH2O was then added. The plates were centrifuged for 30 seconds at 113 x g. 712 After a 60 min incubation, the plates were read on an EnVision® MultiReader in TR-FRET mode 713 (excitation 320 nm: emissions 665 nm). The raw data from the EnVision® MultiReader was 714 expressed as a ratio and was analyzed using proprietary software (Activity Base). […] IC50 values were determined from the percent effect data using a 4-parameter logistic dose 718 response model (Activity Base). To discover a potent and selective BDK inhibitor, a subset of the Pfizer compound collection was screened. […] Off target activity was assessed in both CEREP and kinase panels (Supplementary Tables 2, 3).

[7] = biological target: T1, BDK (branched-chain ketoacid dehydrogenase kinase, BCKDK; hBDK); assay: biochemical; set-up: SPR binding to captured BDK, 1:1 binding model; conditions: read-out: BDK SPR KD
Method: 828 Tween-20 and 2% DMSO. The same buffer was used as the running buffer during the 829 experiments. Compound samples were injected at a flow rate of 30 µL/min for 120 seconds of 830 association time followed by at least 300 seconds of dissociation period. The compounds were 831 tested in a concentration series consisting of at least 6 samples made with 2-fold dilution. The 832 highest concentration was selected based on compound potency in the biochemical assay or 833 binding affinity observed in a previous experiment. Multiple blank injections were run before and 834 after each compound series to allow double reference subtraction during data processing and 835 analysis. Radicicol was tested in every experiment as a positive control to assess activity of the 836 captured protein on the surface. A DMSO curve was run during each experiment to properly 837 correct for excluded volume. The data were processed and analyzed using Bruker Analyzer, 838 Scrubber and Biaeval softwares to calculate binding affinities and kinetics by fitting the data to 839 1:1 binding model. To discover a potent and selective BDK inhibitor, a subset of the Pfizer compound collection was screened. […] Off target activity was assessed in both CEREP and kinase panels (Supplementary Tables 2, 3).

[8] = biological target: T3, BDK-BCKDHE2 (biotinylated BDK with full length non-lipoylated E2 core subunit); assay: AlphaLISA BDK-E2 protein-protein interaction, signal decrease; format: binding

T2 sequence (P28223 whole entry): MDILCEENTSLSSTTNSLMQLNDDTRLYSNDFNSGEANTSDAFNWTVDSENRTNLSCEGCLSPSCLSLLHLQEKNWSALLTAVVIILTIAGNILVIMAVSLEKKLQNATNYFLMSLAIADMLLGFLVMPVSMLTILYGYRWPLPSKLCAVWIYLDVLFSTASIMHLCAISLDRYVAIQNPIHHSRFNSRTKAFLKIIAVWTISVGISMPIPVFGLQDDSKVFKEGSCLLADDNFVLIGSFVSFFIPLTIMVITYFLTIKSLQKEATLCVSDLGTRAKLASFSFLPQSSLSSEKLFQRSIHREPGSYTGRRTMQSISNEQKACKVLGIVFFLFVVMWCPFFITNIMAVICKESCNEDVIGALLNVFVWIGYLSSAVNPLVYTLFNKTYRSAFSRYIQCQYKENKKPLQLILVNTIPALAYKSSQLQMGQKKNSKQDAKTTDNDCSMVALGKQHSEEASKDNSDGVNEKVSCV

Row | SMILES | IC50 [1] [nM] | Kd [2] [nM] | IC50 [6] [nM] | Kd [7] [nM] | other results
1 | CCC1(COc2ccc(-c3csc(-c4ccccc4C(=O)O)n3)cn2)CC1 [PF-07247685] | 0.86 ± 0.15 | 0.68 ± 0.38 |  |  | % (agonism) PF-07247685 ([3]; 10 µM): 3%; EC50 [4]: 2.2 ± 0.35 nM
2 | CC(C)COc1ccc(-c2nc(-c3ccccc3C(=O)O)cs2)cn1 [PF-07238025] | 4.5 ± 0.58 | 4.4 ± 1.1 |  |  | IC50 [5]: 59 ± 10 nM; EC50 ([4]; stabilises BDK-E2 interaction, pH […] KCl, […] MgCl2, […] DTT): 19 ± 1.7 nM
3 | Cc1ccc(-c2nc(-c3ccccc3C(=O)O)cs2)cc1 [S3] |  |  | 1200 ± 490 | 5800 ± 4400 | 
4 | O=C(O)c1sc2cc(Cl)sc2c1Cl [S1] |  |  | 600 ± 51 | 75 ± 2 | 
5 | O=C(O)c1sc2cc(F)sc2c1Cl [PF-07208254] |  | 84 ± 8.7 |  |  | IC50 [8]: 56 ± 26 nM; % (agonism) PF-07208254 ([3]; 100 µM): -5%
6 | O=C(O)c1cc2sc(F)cc2s1 [S2] |  |  | 210 ± 10 | 270 ± 31 | 
